Laboratory results: US20260258050A1, “IMMUNOMODULATOR” (HITGEN INC., priority 2023, published 2026)

Legend:
Human IL-17AF = biological target: T1, Human IL-17AF (Homo sapiens, UniProt Q16552+Q96PD4); assay: IL-17AF ELISA (competitive ELISA, IL-17AF/IL-17Ra receptor-ligand binding); conditions: human IL-17AF coated plate, human IL-17Ra, read-out: IC50, inhibitory activity of compounds on human IL-17AF
T1 construct: purchased Sino Biological Inc. CT047-H08H
T1 sequence (Q16552 24-155): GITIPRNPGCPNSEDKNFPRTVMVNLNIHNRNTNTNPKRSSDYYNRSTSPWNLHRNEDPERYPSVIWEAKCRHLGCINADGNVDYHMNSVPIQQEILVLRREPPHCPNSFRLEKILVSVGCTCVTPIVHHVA
T1 sequence (Q96PD4 31-163): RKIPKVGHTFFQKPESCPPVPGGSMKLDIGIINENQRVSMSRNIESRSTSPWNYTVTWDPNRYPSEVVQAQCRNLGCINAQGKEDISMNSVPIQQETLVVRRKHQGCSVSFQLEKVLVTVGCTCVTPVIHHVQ
Experimental: Experiment Example 2 IL-17AF ELISA
The inhibitory effects of human IL-17AF inhibitors on receptor-ligand binding were quantitatively determined by a competitive ELISA.
The ELISA was performed through the following steps.
Human IL-17AF (Sino Biological Inc., Cat #CT047-H08H) was diluted with coating buffer (50 mM PBS, pH 7.4) to reach a concentration of 0.625 μg/ml. 100 μL of the resulting solution was added to each well of a 96-well plate, and the plate was incubated at 37° C. for 30 min. In the blank group, 100 μL of coating buffer was added instead of the IL-17AF solution.
The plate was washed four times with 10 mM PBST (pH 7.4). 200 μL was used per well for each wash. After the final wash, the plate was tapped dry on absorbent paper.
Fresh 5% (w/v) skim milk solution was prepared before the experiment. For example, 5 grams of skim milk powder (Bio-Rad, Cat #170-6404) was completely dissolved in 100 mL of 10 mM PBST. 200 μL of the 5% (w/v) skim milk solution was added to each well, and the plate was incubated on a shaker at 25° C. for 30 min.
(S4) Preparation of 100× to-be-Tested Compound Solutions
During step (S3), the to-be-tested compound solutions were prepared. Each powdered compound was dissolved in dimethyl sulfoxide (DMSO) to reach a stock concentration of 10 mM. The to-be-tested compound solutions were then serially diluted four-fold with DMSO to obtain nine concentrations ranging from […].
(S6) Pre-Incubation of IL-17AF with to-be-Tested Compound Solutions
89 μL of PBST and 1 μL of each of the to-be-tested compound solutions were added to each well and mixed. The plate was pre-incubated at 25° C. for 10 min. In the blank group and the control group, 1 μL of DMSO was added instead of the to-be-tested compound solutions.
(S7) Incubation with Human IL-17Ra
10 μL of 100 nM IL-17Ra (Sino Biological Inc., Cat #10895-H03H) was added to each well, followed by incubation on a shaker at 25° C. for 30 min. The receptor solution was prepared in 10 mM PBST.
(S9) Incubation with Horseradish Peroxidase-Conjugated Antibody
100 μL of mouse anti-Fc tag HRP-conjugated antibody (Sino Biological Inc., Cat #10702-MM01T-H) was added to each well. The plate was incubated on a shaker at 25° C. for 30 min. The antibody was diluted with 5% (w/v) skim milk solution at 1:5,000 (v/v).
100 μL of TMB substrate solution (BD, Cat #555214) was added to each well. Substrate A and substrate B were freshly mixed at a volume ratio of 1:1 before use. The plate was incubated in the dark at 25° C. for 5-15 min.
(S12) Termination and Detection
The color reaction was terminated by addition of 2.5 M HCl. Absorbance was measured at 450 nm using a BMG PHERStar microplate reader.
(S13) Calculation of Half-Maximal Inhibitory Concentration (IC50)
The relative percent residual activity at each compound concentration was calculated according to Equation 1. The IC50 value of each test compound was then calculated in GraphPad 6 using the equation for log(inhibitor) versus normalized response with variable slope, as shown in Equation 2.
relative percent residual activity (%)=[(absorbance of sample−absorbance of blank group)/(absorbance of control group−absorbance of blank group)]%. Equation 1: […]
The compounds prepared in the Examples were tested for IL-17AF inhibitory activity according to the above method.

Human IL-17A = biological target: T2, Human IL-17A (Homo sapiens, UniProt Q16552); assay: Inhibition of human IL-17A protein-induced GROα/CXCL1 production in HT-29 cells; format: cell-based; parameters: purchased R&D 317-ILB; host or cells: added exogenously to HT-29 cells; conditions: 30 ng/mL human IL-17A protein, 48 h, GROα in supernatant by ELISA kit, read-out: Inhibitory IC50 of compounds on HT-29 cell GROα/CXCL1
T2 sequence (Q16552 20-155 limits assumed): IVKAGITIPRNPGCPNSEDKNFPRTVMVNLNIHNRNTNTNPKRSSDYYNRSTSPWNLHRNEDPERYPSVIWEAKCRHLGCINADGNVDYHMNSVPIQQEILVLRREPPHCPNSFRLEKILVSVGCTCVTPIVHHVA
Summary of the method: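 Compound dilutions were preincubated 1 h at 37 °C with 30 ng/mL human IL-17A, then added to HT-29 cells (5×10^4/well) for 48 h at 37 °C. GROα in supernatant quantified by ELISA; IC50 for inhibition of its production. Positive control: IL-17A antibody at […].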

Structure (SMILES)	IC50 (Human IL-17AF) [nM]	IC50 (Human IL-17A) [nM]
Cc1[nH]nc2c1-c1cnc(NC(=O)[C@@H](NC(=O)c3ccnn3C3CC3)C(C3CC3)C3CC3)cc1COCC2 [compound 237]	100 to 500	100 to 500
Cc1[nH]nc2c1-c1cc(F)c(NC(=O)[C@@H](NC(=O)c3ccnn3CCC(F)F)C(C3CC3)C3CC3)cc1COCC2 [compound 65]	≤ 100	100 to 500
[2H]C([2H])([2H])C([2H])(n1nccc1C(=O)N[C@H](C(=O)Nc1cc2c(cc1F)-c1c(n[nH]c1C)CCOC2)C(C1CC1)C1CC1)C([2H])([2H])[2H] [compound 89]	100 to 500	≤ 100
Cc1[nH]nc2c1-c1cnc(NC(=O)[C@@H](NC(=O)c3conc3C3CC3)C(C3CC3)C3CC3)cc1COCC2 [compound 241]	100 to 500	100 to 500
Cc1[nH]nc2c1-c1cnc(NC(=O)[C@@H](NC(=O)c3ccnn3C(C)C)C(C3CC3)C3CC3)cc1CN(C(C)C)C(=O)C2 [compound 195]	100 to 500	≤ 100
Cc1[nH]nc2c1-c1cnc(NC(=O)[C@@H](NC(=O)c3ccnn3C(C)C3CC3)C(C3CC3)C3CC3)cc1COCC2 (single isomer, unassigned) [compound 188b]	100 to 500	≤ 100
CCc1nocc1C(=O)N[C@H](C(=O)Nc1cc2c(cn1)-c1c(n[nH]c1C)CCN(C1CC1)C2)C(C1CC1)C1CC1 [compound 216]	100 to 500	≤ 100
Cc1[nH]nc2c1-c1cnc(NC(=O)[C@@H](NC(=O)c3ccnn3C(C)C)C(C3CC3)C3CC3)cc1CN(C1CC(F)(F)C1)C(=O)C2 [compound 194]	100 to 500	≤ 100
CCn1nccc1C(=O)N[C@H](C(=O)Nc1ccc2c(c1)CN(C)C(=O)Cc1n[nH]c(C)c1-2)C(C1CC1)C1CC1 [compound 23]	≤ 100	≤ 100
Cc1[nH]nc2c1-c1cnc(NC(=O)[C@@H](NC(=O)c3conc3C(C)C)C(C3CC3)C3CC3)cc1CN(C1CC1)CC2 [compound 214]	≤ 100	≤ 100
Cc1[nH]nc2c1-c1ccc(NC(=O)[C@@H](NC(=O)c3ccnn3C)C(C3CC3)C3CC3)cc1COCC2 [compound 2]	≤ 100	100 to 500
Cc1[nH]nc2c1-c1cc(F)c(NC(=O)[C@@H](NC(=O)c3ccnn3C[C@@H]3C[C@H]3F)C(C3CC3)C3CC3)cc1COCC2 [compound 101]	≤ 100	≤ 100
Cc1[nH]nc2c1-c1cc(F)c(NC(=O)[C@@H](NC(=O)c3ccnn3C(C)C)C(C3CC3)C3CC3)cc1COCC2 [compound 15]	≤ 100	≤ 100
Cc1[nH]nc2c1-c1cnc(NC(=O)[C@@H](NC(=O)c3ccnn3C(C)C)C(C3CC3)C3CC3)cc1CN(C1CC1)CC2 [compound 198]	100 to 500	≤ 100
Cc1[nH]nc2c1-c1cnc(NC(=O)[C@@H](NC(=O)c3ccnn3CC(F)(F)F)C(C3CC3)C3CC3)cc1COCC2 [compound 236]	100 to 500	100 to 500
Cc1[nH]nc2c1-c1cnc(NC(=O)[C@@H](NC(=O)c3ccnn3C(C)C)C(C3CC3)C3CC3)cc1CN(CC(C)(F)F)C(=O)C2 [compound 193]	≤ 100	≤ 100

Structure (SMILES)	IC50 (Human IL-17AF) [nM]	IC50 (Human IL-17A) [nM]
Cc1[nH]nc2c1-c1cc(F)c(NC(=O)[C@@H](NC(=O)c3ccnn3CC3CCC3)C(C3CC3)C3CC3)cc1COCC2 [compound 60]	≤ 100	100 to 500
Cc1[nH]nc2c1-c1cc(F)c(NC(=O)[C@@H](NC(=O)c3ccnn3CC(C)(F)F)C(C3CC3)C3CC3)cc1COCC2 [compound 87]	100 to 500	100 to 500
[2H]C([2H])([2H])C([2H])(n1nccc1C(=O)N[C@H](C(=O)Nc1cc2c(cn1)-c1c(n[nH]c1C)CCOC2)C(C1CC1)C1CC1)C([2H])([2H])[2H] [compound 54]	≤ 100	≤ 100
CCn1nccc1C(=O)N[C@H](C(=O)Nc1ccc2c(c1)CNC(=O)Cc1n[nH]c(C)c1-2)C(C1CC1)C1CC1 [compound 28]	≤ 100	100 to 500
Cc1[nH]nc2c1-c1cc(F)c(NC(=O)[C@@H](NC(=O)c3ccnn3C(C)C)C(C3CC3)C3CC3)cc1CN(C1CC(F)(F)C1)C(=O)C2 [compound 169]	≤ 100	≤ 100
Cc1[nH]nc2c1-c1cc(F)c(NC(=O)[C@@H](NC(=O)c3ccnn3C(C)C3CC3)C(C3CC3)C3CC3)cc1COCC2 (single isomer, unassigned) [compound 41b]	≤ 100	≤ 100
Cc1[nH]nc2c1-c1cc(F)c(NC(=O)[C@@H](NC(=O)c3cnnn3CCOC(F)F)C(C3CC3)C3CC3)cc1COCC2 [compound 108]	100 to 500	100 to 500
Cc1[nH]nc2c1-c1cc(F)c(NC(=O)[C@@H](NC(=O)c3ccnn3C(C)C)C(C3CC3)C3CC3)cc1CN(C(C)C(F)(F)F)C(=O)C2 (mixture of isomers) [compound 173]	100 to 500	≤ 100
Cc1[nH]nc2c1-c1cc(F)c(NC(=O)[C@@H](NC(=O)c3ccnn3C(C)C)C(C3CC3)C3CC3)cc1CN(C1CCOCC1)C(=O)C2 [compound 167]	100 to 500	≤ 100
Cc1[nH]nc2c1-c1cc(F)c(NC(=O)[C@@H](NC(=O)c3ccnn3C(C)C)C(C3CC3)C3CC3)cc1CN(C1CCC(F)(F)CC1)C(=O)C2 [compound 168]	100 to 500	≤ 100
Cc1[nH]nc2c1-c1cc(F)c(NC(=O)[C@@H](NC(=O)c3ccnn3C(C)C3CC3)C(C3CC3)C3CC3)cc1COCC2 (single isomer, unassigned) [compound 41a]	100 to 500	≤ 100
Cc1[nH]nc2c1-c1ccc(NC(=O)[C@@H](NC(=O)c3ccnn3C(C)C)C(C3CC3)C3CC3)cc1CNC(=O)C2 [compound 27]	100 to 500	100 to 500
CCn1nccc1C(=O)N[C@H](C(=O)Nc1cc2c(cc1F)-c1c(n[nH]c1C)CCOC2)[C@H]1CC[C@H](C)CC1 [compound 46]	≤ 100	100 to 500
Cc1[nH]nc2c1-c1cc(F)c(NC(=O)[C@@H](NC(=O)c3ccnn3CCOCC(F)(F)F)C(C3CC3)C3CC3)cc1COCC2 [compound 104]	100 to 500	≤ 100
[2H]C([2H])(C1CC1)n1nccc1C(=O)N[C@H](C(=O)Nc1cc2c(cc1F)-c1c(n[nH]c1C)CCOC2)C(C1CC1)C1CC1 [compound 76]	≤ 100	100 to 500
CCc1nocc1C(=O)N[C@H](C(=O)Nc1cc2c(cn1)-c1c(n[nH]c1C)CCOC2)C(C1CC1)C1CC1 [compound 240]	100 to 500	100 to 500
